Measurements published in ChEMBL document CHEMBL1201862, “PubChem BioAssay data set” (2004).
Active and inactive are the calls of the source.

Key:
[1] = cytotoxicity toward NIH3T3 fibroblasts, dose response, counter-screen, cell-based, ATP luminescence, mouse fibroblasts (AID 2010); format: functional;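 note: cells exposed to compound for about 90 hours before reading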
Protein RecA = molecular target: T1, Protein RecA (Mycobacterium tuberculosis, UniProt P9WHJ3); test: Fluorescence Cell-Free Homogeneous Dose Retest to Identify Inhibitors of RecA-Intein Splicing Activity. [Related pubchem assays (depositor defined):AID2097, AID2223, AID489010, AID492950]; format: functional
T1 sequence (P9WHJ3 whole entry): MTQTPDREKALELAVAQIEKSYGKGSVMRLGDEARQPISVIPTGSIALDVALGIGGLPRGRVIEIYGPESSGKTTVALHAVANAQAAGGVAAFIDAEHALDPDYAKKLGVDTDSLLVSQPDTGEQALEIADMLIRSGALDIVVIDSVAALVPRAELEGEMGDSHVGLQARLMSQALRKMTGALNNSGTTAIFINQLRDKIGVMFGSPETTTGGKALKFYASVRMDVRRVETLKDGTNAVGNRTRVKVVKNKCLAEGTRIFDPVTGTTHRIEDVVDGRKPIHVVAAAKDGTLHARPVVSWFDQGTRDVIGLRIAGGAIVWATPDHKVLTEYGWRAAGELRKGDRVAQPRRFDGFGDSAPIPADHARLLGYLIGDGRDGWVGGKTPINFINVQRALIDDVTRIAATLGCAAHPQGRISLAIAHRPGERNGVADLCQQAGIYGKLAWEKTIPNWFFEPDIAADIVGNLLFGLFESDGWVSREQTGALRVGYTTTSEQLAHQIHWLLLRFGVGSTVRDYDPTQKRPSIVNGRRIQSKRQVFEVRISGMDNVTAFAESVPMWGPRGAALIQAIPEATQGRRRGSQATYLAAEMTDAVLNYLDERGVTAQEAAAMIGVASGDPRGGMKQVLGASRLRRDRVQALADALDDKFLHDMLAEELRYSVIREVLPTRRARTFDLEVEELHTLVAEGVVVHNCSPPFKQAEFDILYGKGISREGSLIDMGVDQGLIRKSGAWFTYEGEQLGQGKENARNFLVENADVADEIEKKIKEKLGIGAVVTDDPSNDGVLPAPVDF

[2] = inhibitors of intracellular T. cruzi replication, confirmation, NIH3T3 host cells, beta-gal luminescence (AID 2044); format: functional, cell-based;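 note: intracellular parasites grown in NIH/3T3 mouse fibroblasts as host cells; luminescent beta-galactosidase reporter signal from transgenic T. cruzi replicating inside host cells; inhibitors lower the luminescence signal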
Vero = Vero cell cytotoxicity, cytotoxicity control for flavivirus capping enzyme inhibitors (AID 588742); format: functional; settings: Chlorocebus sabaeus
[3] = molecular target: T2, Replicative DNA helicase DnaB (Mycobacterium tuberculosis, UniProt P9WMR3); test: DnaB intein splicing inhibitors, dose response, biochemical, cell-free fluorescence (AID 449749); format: functional
T2 sequence (P9WMR3 whole entry): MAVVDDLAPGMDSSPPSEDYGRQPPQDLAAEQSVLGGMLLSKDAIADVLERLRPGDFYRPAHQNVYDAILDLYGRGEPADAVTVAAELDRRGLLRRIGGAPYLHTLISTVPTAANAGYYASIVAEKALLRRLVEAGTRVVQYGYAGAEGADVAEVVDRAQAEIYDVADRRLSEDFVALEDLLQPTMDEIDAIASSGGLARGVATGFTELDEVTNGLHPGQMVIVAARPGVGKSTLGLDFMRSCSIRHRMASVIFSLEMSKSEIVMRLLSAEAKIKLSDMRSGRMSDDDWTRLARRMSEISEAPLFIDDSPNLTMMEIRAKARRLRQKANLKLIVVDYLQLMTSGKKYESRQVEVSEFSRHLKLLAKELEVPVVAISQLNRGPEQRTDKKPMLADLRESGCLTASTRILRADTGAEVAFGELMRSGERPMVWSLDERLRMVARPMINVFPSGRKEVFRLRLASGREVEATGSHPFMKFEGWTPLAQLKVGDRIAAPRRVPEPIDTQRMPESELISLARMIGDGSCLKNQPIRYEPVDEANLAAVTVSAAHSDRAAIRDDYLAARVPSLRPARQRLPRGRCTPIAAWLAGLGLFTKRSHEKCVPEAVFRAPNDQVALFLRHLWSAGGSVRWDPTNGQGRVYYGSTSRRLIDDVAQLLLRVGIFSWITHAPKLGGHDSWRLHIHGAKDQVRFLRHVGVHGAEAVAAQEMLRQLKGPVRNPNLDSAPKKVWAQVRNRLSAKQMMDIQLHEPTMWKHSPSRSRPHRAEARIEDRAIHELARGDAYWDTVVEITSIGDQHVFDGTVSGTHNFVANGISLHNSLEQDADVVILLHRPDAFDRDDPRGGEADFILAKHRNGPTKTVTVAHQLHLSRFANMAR

SUMO-activating enzyme [4] = molecular target: T3, SUMO-activating enzyme (Homo sapiens, UniProt Q9UBT2); test: inhibitors of in vitro SUMOylation cascade, primary screen, biochemical, HTRF, uHTS (AID 2006); format: protein-complex assay
SUMO-activating enzyme [5] = molecular target: T3, SUMO-activating enzyme; test: SUMOylation inhibitor hit validation, confirmation, SUMOylation inhibitor project, biochemical, AlphaScreen (AID 2018); format: functional
HEK293 [6] = test: cells; format: functional, cell-based; settings: Homo sapiens
HEK293 [7] = test: cells; settings: Homo sapiens
HEK293 [8] = test: cells; format: functional, cell-based; settings: Homo sapiens; remark: listed apart in the source
HEK293 [9] = test: NOD1 signaling inhibitors, primary screen, cell-based, luminescence, uHTS (AID 1578); format: functional; settings: Homo sapiens
[10] = molecular target: Nucleotide-binding oligomerization domain-containing protein 1 (Homo sapiens, UniProt Q9Y239); test: NOD1 signaling inhibitors, SAR follow-up, revised (AID 2333); format: functional
HEK293 [11] = test: NOD2 signaling inhibitors in MDP-stimulated cells, cell-based, uHTS, luminescence (AID 2001); format: functional; settings: Homo sapiens
Tumor necrosis factor = Tumor necrosis factor (Homo sapiens, UniProt P01375); test: TNFa-triggered NF-kB activation inhibitors, SAR follow-up, cell-based, revised (AID 2337); format: functional
[12] = molecular target: FAD-linked sulfhydryl oxidase ALR (Homo sapiens, UniProt P55789); test: inhibitors of human ALR sulfhydryl oxidase, dose response, biochemical, H2O2 detection, luminescence, cherry-pick (AID 493248)
[13] = molecular target: Eukaryotic translation initiation factor 4H (Homo sapiens, UniProt Q15056); test: eIF4H inhibition in translation initiation, SAR follow-up (AID 435011); format: functional
[14] = molecular target: T4, Polyadenylate-binding protein 1 (Homo sapiens, UniProt P11940); test: PABP inhibition in translation initiation, SAR follow-up (AID 435018); format: functional
[15] = molecular target: T4, Polyadenylate-binding protein 1; test: SAR analysis for the identification of translation initiation inhibitors (PABP) via an Electrophoretic Mobility Shift Dose Response Assay. [Related pubchem assays (depositor defined):AID2012, AID2014, AID2030]; format: functional

T4 sequence (P11940 whole entry): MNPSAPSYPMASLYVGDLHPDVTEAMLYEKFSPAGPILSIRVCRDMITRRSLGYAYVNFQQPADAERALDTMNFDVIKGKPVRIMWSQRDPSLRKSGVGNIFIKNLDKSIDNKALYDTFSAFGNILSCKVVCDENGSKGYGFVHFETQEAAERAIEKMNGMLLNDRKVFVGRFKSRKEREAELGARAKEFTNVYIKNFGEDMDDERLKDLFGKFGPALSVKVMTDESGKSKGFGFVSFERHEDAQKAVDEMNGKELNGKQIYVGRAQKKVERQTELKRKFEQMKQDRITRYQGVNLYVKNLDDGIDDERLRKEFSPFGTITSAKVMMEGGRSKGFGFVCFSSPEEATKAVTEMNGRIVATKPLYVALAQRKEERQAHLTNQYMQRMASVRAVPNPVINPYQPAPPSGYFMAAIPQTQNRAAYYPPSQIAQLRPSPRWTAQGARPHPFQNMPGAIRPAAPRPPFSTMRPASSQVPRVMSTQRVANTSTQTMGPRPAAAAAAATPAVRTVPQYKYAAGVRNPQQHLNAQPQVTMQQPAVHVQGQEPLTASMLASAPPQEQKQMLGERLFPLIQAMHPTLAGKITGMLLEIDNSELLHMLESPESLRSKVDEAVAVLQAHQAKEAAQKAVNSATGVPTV
T3 sequence (Q9UBE0 whole entry): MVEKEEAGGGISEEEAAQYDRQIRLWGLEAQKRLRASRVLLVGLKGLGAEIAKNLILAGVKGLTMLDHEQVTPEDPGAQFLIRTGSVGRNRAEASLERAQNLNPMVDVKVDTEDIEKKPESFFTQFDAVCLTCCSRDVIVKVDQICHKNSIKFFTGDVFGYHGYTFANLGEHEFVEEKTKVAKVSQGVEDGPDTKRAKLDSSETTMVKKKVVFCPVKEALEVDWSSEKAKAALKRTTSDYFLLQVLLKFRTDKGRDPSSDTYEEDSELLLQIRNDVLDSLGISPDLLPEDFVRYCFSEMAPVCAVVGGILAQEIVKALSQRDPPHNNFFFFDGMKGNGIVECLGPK
T3 sequence (Q9UBT2 whole entry): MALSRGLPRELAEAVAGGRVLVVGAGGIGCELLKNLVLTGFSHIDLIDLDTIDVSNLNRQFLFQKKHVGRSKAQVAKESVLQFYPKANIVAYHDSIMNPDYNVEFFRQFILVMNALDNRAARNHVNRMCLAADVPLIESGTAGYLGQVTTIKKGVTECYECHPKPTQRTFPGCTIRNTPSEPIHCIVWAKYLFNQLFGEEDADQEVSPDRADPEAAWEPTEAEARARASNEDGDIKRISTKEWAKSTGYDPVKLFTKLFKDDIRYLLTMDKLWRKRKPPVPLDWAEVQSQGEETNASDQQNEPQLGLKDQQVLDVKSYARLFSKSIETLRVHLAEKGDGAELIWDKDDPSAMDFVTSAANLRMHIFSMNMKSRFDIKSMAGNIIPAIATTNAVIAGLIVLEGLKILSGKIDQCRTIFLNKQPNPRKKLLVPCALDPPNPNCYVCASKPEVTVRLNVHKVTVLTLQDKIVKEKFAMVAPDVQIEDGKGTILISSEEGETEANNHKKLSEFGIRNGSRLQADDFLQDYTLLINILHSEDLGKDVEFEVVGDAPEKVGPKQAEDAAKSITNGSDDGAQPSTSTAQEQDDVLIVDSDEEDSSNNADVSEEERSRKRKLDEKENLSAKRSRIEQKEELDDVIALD
Sequence of Tumor necrosis factor (P01375 whole entry): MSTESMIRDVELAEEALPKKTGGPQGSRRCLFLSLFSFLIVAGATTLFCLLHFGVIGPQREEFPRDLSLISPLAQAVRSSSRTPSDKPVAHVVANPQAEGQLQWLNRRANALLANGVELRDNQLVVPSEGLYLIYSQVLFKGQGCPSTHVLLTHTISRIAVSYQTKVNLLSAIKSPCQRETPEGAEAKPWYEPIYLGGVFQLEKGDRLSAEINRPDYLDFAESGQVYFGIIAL
Sequence of Nucleotide-binding oligomerization domain-containing protein 1 (Q9Y239 whole entry, the tested form may be a part): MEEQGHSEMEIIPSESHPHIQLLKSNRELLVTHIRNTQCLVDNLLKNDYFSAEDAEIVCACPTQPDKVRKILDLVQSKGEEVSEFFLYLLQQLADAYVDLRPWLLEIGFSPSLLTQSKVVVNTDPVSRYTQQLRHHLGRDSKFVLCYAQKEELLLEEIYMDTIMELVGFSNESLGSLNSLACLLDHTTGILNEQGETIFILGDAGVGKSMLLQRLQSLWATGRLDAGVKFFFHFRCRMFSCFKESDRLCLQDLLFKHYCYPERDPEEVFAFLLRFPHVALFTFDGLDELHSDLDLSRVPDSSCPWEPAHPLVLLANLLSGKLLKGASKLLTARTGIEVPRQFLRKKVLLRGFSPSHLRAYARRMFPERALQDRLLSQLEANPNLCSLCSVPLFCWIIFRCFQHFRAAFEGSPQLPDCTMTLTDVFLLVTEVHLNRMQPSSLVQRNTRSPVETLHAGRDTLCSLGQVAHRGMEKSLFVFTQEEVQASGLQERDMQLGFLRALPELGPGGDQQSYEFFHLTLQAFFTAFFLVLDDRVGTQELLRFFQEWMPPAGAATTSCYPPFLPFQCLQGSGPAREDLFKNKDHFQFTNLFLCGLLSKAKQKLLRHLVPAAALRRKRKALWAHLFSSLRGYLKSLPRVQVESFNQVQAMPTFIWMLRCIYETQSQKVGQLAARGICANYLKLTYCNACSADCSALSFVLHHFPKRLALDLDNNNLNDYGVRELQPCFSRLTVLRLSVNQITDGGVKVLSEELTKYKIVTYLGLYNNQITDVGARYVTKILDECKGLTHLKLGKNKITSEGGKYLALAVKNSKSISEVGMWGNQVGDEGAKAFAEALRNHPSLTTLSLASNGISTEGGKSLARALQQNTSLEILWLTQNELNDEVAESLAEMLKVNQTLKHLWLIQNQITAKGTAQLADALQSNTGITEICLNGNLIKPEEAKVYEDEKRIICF
Sequence of FAD-linked sulfhydryl oxidase ALR (P55789 whole entry): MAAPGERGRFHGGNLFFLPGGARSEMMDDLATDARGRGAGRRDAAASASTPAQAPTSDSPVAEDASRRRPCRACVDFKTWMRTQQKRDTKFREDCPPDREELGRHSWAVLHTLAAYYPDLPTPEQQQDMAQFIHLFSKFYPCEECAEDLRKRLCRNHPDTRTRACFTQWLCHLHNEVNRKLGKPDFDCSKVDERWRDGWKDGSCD

## CCCCCn1c(NC(=O)c2ccco2)c(S(=O)(=O)c2ccc(C)cc2)c2nc3ccccc3nc21
[1]
  EC50: > 60 µM (not active)
Protein RecA
  EC50: > 380 µM (inconclusive)
[2]
  EC50: 3.27 µM (active)
Vero
  CC50: > 40 µM (active)
[3]
  AC50: > 380 µM (inactive)
SUMO-activating enzyme [4]
  IC50: 13.1 µM (active)
SUMO-activating enzyme [5]
  IC50: 2.74 µM (active)

## O=C(Nc1sc2c(c1C(=O)O)CCCC2)c1ccc(Cl)cc1
HEK293 [6]
  IC50: > 20 µM (inactive)
HEK293 [7]
  IC50: > 20 µM (inactive)
HEK293 [8]
  IC50: > 20 µM (inactive)
HEK293 [9]
  EC50: 6.58 µM (active)
[10]
  IC50: 2.86 µM (active)
HEK293 [11]
  IC50: 16 µM (inactive)
Tumor necrosis factor
  IC50: 13.4 µM (active)

## COc1ccc(N2Cc3cccc(C(=O)NC(C)CCc4ccco4)c3C2=O)cc1 (stereo not drawn)
[12]
  AC50: 1.06 µM (active)
[13]
  IC50: 5.42 µM (active)
[14]
  IC50: > 100 µM (inactive)
[15]
  IC50: 10 µM (active)
